Assay results as given in the supplement of paper PMC8882468.
± gives the standard deviation of the averaged measurements.

What follows are compounds tested on HCI-017.E2 (organoid from an ER-positive breast cancer xenograft) (assay: CTG-3D luminescence at 96 h relative to day-0 seeding control (ratio to day 0); higher = more growth / less cytotoxicity; PDxO 3D drug screen, 96 h, CTG-3D normalised to day-0 seeding control.). Conditions: 12.5 pM.

Structure (SMILES) | CTG-3D luminescence at 96 h
O=C(O)C1(C(=O)O)CCC1.[NH2-].[NH2-].[Pt+2] [carboplatin] | 1.88 ± 0.13
COc1cc2c(Oc3ccc4[nH]c(C)cc4c3F)ncnc2cc1OCCCN1CCCC1 [cediranib] | 1.74 ± 0.048
C[C@@H]1COCCN1c1cc(C2([S@](C)(=N)=O)CC2)nc(-c2cc[nH]c3nccc2-3)n1 [ceralasertib] | 1.72 ± 0.058
Cc1cc(Nc2ncc(Cl)c(Nc3ccccc3S(=O)(=O)C(C)C)n2)c(OC(C)C)cc1C1CCNCC1 [ceritinib] | 1.94 ± 0.52
O=C(c1ccc(F)c(F)c1Nc1ccc(I)cc1F)N1CC(O)([C@@H]2CCCCN2)C1 [cobimetinib] | 1.77 ± 0.36
C[C@H](NC(=O)CCC(F)(F)F)C(=O)N[C@@H]1C(=O)N(CCO)c2ncccc2-c2ccccc21 [crenigacestat] | 1.98 ± 0.17
COc1cccc2c1C(=O)c1c(O)c3c(c(O)c1C2=O)C[C@@](O)(C(=O)CO)C[C@@H]3O[C@H]1C[C@H](N)[C@H](O)[C@H](C)O1 [doxorubicin] | 1.87 ± 0.07
C[C@]12CC[C@@H]3c4ccc(O)cc4C[C@@H](CCCCCCCCC[S+]([O-])CCCC(F)(F)C(F)(F)F)[C@H]3[C@@H]1CC[C@@H]2O (some centres not stated) [fulvestrant] | 1.94 ± 0.14
Nc1ccn([C@@H]2O[C@H](CO)[C@@H](O)C2(F)F)c(=O)n1 [gemcitabine] | 2.08 ± 0.065

Same assay, conditions: 12.5 pM; days in culture: 85

Structure (SMILES) | CTG-3D luminescence at 96 h
O=C(O)C1(C(=O)O)CCC1.[NH2-].[NH2-].[Pt+2] [carboplatin] | 2.99
COc1cc2c(Oc3ccc4[nH]c(C)cc4c3F)ncnc2cc1OCCCN1CCCC1 [cediranib] | 2.93
C[C@@H]1COCCN1c1cc(C2([S@](C)(=N)=O)CC2)nc(-c2cc[nH]c3nccc2-3)n1 [ceralasertib] | 3.08
Cc1cc(Nc2ncc(Cl)c(Nc3ccccc3S(=O)(=O)C(C)C)n2)c(OC(C)C)cc1C1CCNCC1 [ceritinib] | 2.65
O=C(c1ccc(F)c(F)c1Nc1ccc(I)cc1F)N1CC(O)([C@@H]2CCCCN2)C1 [cobimetinib] | 3.27
C[C@H](NC(=O)CCC(F)(F)F)C(=O)N[C@@H]1C(=O)N(CCO)c2ncccc2-c2ccccc21 [crenigacestat] | 2.43
COc1cccc2c1C(=O)c1c(O)c3c(c(O)c1C2=O)C[C@@](O)(C(=O)CO)C[C@@H]3O[C@H]1C[C@H](N)[C@H](O)[C@H](C)O1 [doxorubicin] | 2.94
C[C@]12CC[C@@H]3c4ccc(O)cc4C[C@@H](CCCCCCCCC[S+]([O-])CCCC(F)(F)C(F)(F)F)[C@H]3[C@@H]1CC[C@@H]2O (some centres not stated) [fulvestrant] | 2.84
Nc1ccn([C@@H]2O[C@H](CO)[C@@H](O)C2(F)F)c(=O)n1 [gemcitabine] | 2.64

Same assay, conditions: 0.00025 µM

Structure (SMILES) | CTG-3D luminescence at 96 h
O=C(O)C1(C(=O)O)CCC1.[NH2-].[NH2-].[Pt+2] [carboplatin] | 2.076 ± 0.0078
COc1cc2c(Oc3ccc4[nH]c(C)cc4c3F)ncnc2cc1OCCCN1CCCC1 [cediranib] | 2.27 ± 0.082
C[C@@H]1COCCN1c1cc(C2([S@](C)(=N)=O)CC2)nc(-c2cc[nH]c3nccc2-3)n1 [ceralasertib] | 2.28 ± 0.099
Cc1cc(Nc2ncc(Cl)c(Nc3ccccc3S(=O)(=O)C(C)C)n2)c(OC(C)C)cc1C1CCNCC1 [ceritinib] | 2.16 ± 0.13
O=C(c1ccc(F)c(F)c1Nc1ccc(I)cc1F)N1CC(O)([C@@H]2CCCCN2)C1 [cobimetinib] | 2.11 ± 0.29
C[C@H](NC(=O)CCC(F)(F)F)C(=O)N[C@@H]1C(=O)N(CCO)c2ncccc2-c2ccccc21 [crenigacestat] | 2.37 ± 0.17
COc1cccc2c1C(=O)c1c(O)c3c(c(O)c1C2=O)C[C@@](O)(C(=O)CO)C[C@@H]3O[C@H]1C[C@H](N)[C@H](O)[C@H](C)O1 [doxorubicin] | 2.06 ± 0.33
C[C@]12CC[C@@H]3c4ccc(O)cc4C[C@@H](CCCCCCCCC[S+]([O-])CCCC(F)(F)C(F)(F)F)[C@H]3[C@@H]1CC[C@@H]2O (some centres not stated) [fulvestrant] | 2.16 ± 0.11
Nc1ccn([C@@H]2O[C@H](CO)[C@@H](O)C2(F)F)c(=O)n1 [gemcitabine] | 2.07 ± 0.064

Same assay, conditions: 0.00025 µM; days in culture: 85

Structure (SMILES) | CTG-3D luminescence at 96 h
O=C(O)C1(C(=O)O)CCC1.[NH2-].[NH2-].[Pt+2] [carboplatin] | 2.47
COc1cc2c(Oc3ccc4[nH]c(C)cc4c3F)ncnc2cc1OCCCN1CCCC1 [cediranib] | 3.39
C[C@@H]1COCCN1c1cc(C2([S@](C)(=N)=O)CC2)nc(-c2cc[nH]c3nccc2-3)n1 [ceralasertib] | 3.11
Cc1cc(Nc2ncc(Cl)c(Nc3ccccc3S(=O)(=O)C(C)C)n2)c(OC(C)C)cc1C1CCNCC1 [ceritinib] | 2.49
O=C(c1ccc(F)c(F)c1Nc1ccc(I)cc1F)N1CC(O)([C@@H]2CCCCN2)C1 [cobimetinib] | 2.34
C[C@H](NC(=O)CCC(F)(F)F)C(=O)N[C@@H]1C(=O)N(CCO)c2ncccc2-c2ccccc21 [crenigacestat] | 2.96
COc1cccc2c1C(=O)c1c(O)c3c(c(O)c1C2=O)C[C@@](O)(C(=O)CO)C[C@@H]3O[C@H]1C[C@H](N)[C@H](O)[C@H](C)O1 [doxorubicin] | 3.18
C[C@]12CC[C@@H]3c4ccc(O)cc4C[C@@H](CCCCCCCCC[S+]([O-])CCCC(F)(F)C(F)(F)F)[C@H]3[C@@H]1CC[C@@H]2O (some centres not stated) [fulvestrant] | 3.05
Nc1ccn([C@@H]2O[C@H](CO)[C@@H](O)C2(F)F)c(=O)n1 [gemcitabine] | 2.91

Same assay, conditions: 0.005 µM

Structure (SMILES) | CTG-3D luminescence at 96 h
O=C(O)C1(C(=O)O)CCC1.[NH2-].[NH2-].[Pt+2] [carboplatin] | 2.32 ± 0.15
COc1cc2c(Oc3ccc4[nH]c(C)cc4c3F)ncnc2cc1OCCCN1CCCC1 [cediranib] | 2.12 ± 0.093
C[C@@H]1COCCN1c1cc(C2([S@](C)(=N)=O)CC2)nc(-c2cc[nH]c3nccc2-3)n1 [ceralasertib] | 2.17 ± 0.45
Cc1cc(Nc2ncc(Cl)c(Nc3ccccc3S(=O)(=O)C(C)C)n2)c(OC(C)C)cc1C1CCNCC1 [ceritinib] | 2.23 ± 0.49
O=C(c1ccc(F)c(F)c1Nc1ccc(I)cc1F)N1CC(O)([C@@H]2CCCCN2)C1 [cobimetinib] | 2.18 ± 0.27
C[C@H](NC(=O)CCC(F)(F)F)C(=O)N[C@@H]1C(=O)N(CCO)c2ncccc2-c2ccccc21 [crenigacestat] | 2.22 ± 0.31
COc1cccc2c1C(=O)c1c(O)c3c(c(O)c1C2=O)C[C@@](O)(C(=O)CO)C[C@@H]3O[C@H]1C[C@H](N)[C@H](O)[C@H](C)O1 [doxorubicin] | 2.07 ± 0.17
C[C@]12CC[C@@H]3c4ccc(O)cc4C[C@@H](CCCCCCCCC[S+]([O-])CCCC(F)(F)C(F)(F)F)[C@H]3[C@@H]1CC[C@@H]2O (some centres not stated) [fulvestrant] | 2.05 ± 0.34
Nc1ccn([C@@H]2O[C@H](CO)[C@@H](O)C2(F)F)c(=O)n1 [gemcitabine] | 1.97 ± 0.2

Same assay, conditions: 0.005 µM; days in culture: 85

Structure (SMILES) | CTG-3D luminescence at 96 h
O=C(O)C1(C(=O)O)CCC1.[NH2-].[NH2-].[Pt+2] [carboplatin] | 2.94
COc1cc2c(Oc3ccc4[nH]c(C)cc4c3F)ncnc2cc1OCCCN1CCCC1 [cediranib] | 2.44
C[C@@H]1COCCN1c1cc(C2([S@](C)(=N)=O)CC2)nc(-c2cc[nH]c3nccc2-3)n1 [ceralasertib] | 2.49
Cc1cc(Nc2ncc(Cl)c(Nc3ccccc3S(=O)(=O)C(C)C)n2)c(OC(C)C)cc1C1CCNCC1 [ceritinib] | 2.67
O=C(c1ccc(F)c(F)c1Nc1ccc(I)cc1F)N1CC(O)([C@@H]2CCCCN2)C1 [cobimetinib] | 2.34
C[C@H](NC(=O)CCC(F)(F)F)C(=O)N[C@@H]1C(=O)N(CCO)c2ncccc2-c2ccccc21 [crenigacestat] | 2.49
COc1cccc2c1C(=O)c1c(O)c3c(c(O)c1C2=O)C[C@@](O)(C(=O)CO)C[C@@H]3O[C@H]1C[C@H](N)[C@H](O)[C@H](C)O1 [doxorubicin] | 2.56
C[C@]12CC[C@@H]3c4ccc(O)cc4C[C@@H](CCCCCCCCC[S+]([O-])CCCC(F)(F)C(F)(F)F)[C@H]3[C@@H]1CC[C@@H]2O (some centres not stated) [fulvestrant] | 2.96
Nc1ccn([C@@H]2O[C@H](CO)[C@@H](O)C2(F)F)c(=O)n1 [gemcitabine] | 2.88

Same assay, conditions: 0.1 µM

Structure (SMILES) | CTG-3D luminescence at 96 h
O=C(O)C1(C(=O)O)CCC1.[NH2-].[NH2-].[Pt+2] [carboplatin] | 2.4 ± 0.19
COc1cc2c(Oc3ccc4[nH]c(C)cc4c3F)ncnc2cc1OCCCN1CCCC1 [cediranib] | 2.09 ± 0.069
C[C@@H]1COCCN1c1cc(C2([S@](C)(=N)=O)CC2)nc(-c2cc[nH]c3nccc2-3)n1 [ceralasertib] | 2.23 ± 0.21
Cc1cc(Nc2ncc(Cl)c(Nc3ccccc3S(=O)(=O)C(C)C)n2)c(OC(C)C)cc1C1CCNCC1 [ceritinib] | 2.22 ± 0.29
O=C(c1ccc(F)c(F)c1Nc1ccc(I)cc1F)N1CC(O)([C@@H]2CCCCN2)C1 [cobimetinib] | 1.89 ± 0.2
C[C@H](NC(=O)CCC(F)(F)F)C(=O)N[C@@H]1C(=O)N(CCO)c2ncccc2-c2ccccc21 [crenigacestat] | 1.95 ± 0.11
COc1cccc2c1C(=O)c1c(O)c3c(c(O)c1C2=O)C[C@@](O)(C(=O)CO)C[C@@H]3O[C@H]1C[C@H](N)[C@H](O)[C@H](C)O1 [doxorubicin] | 1.89 ± 0.35
C[C@]12CC[C@@H]3c4ccc(O)cc4C[C@@H](CCCCCCCCC[S+]([O-])CCCC(F)(F)C(F)(F)F)[C@H]3[C@@H]1CC[C@@H]2O (some centres not stated) [fulvestrant] | 1.92 ± 0.26
Nc1ccn([C@@H]2O[C@H](CO)[C@@H](O)C2(F)F)c(=O)n1 [gemcitabine] | 1.88 ± 0.23

Same assay, conditions: 0.1 µM; days in culture: 85

Structure (SMILES) | CTG-3D luminescence at 96 h
O=C(O)C1(C(=O)O)CCC1.[NH2-].[NH2-].[Pt+2] [carboplatin] | 2.35
COc1cc2c(Oc3ccc4[nH]c(C)cc4c3F)ncnc2cc1OCCCN1CCCC1 [cediranib] | 2.78
C[C@@H]1COCCN1c1cc(C2([S@](C)(=N)=O)CC2)nc(-c2cc[nH]c3nccc2-3)n1 [ceralasertib] | 2.26
Cc1cc(Nc2ncc(Cl)c(Nc3ccccc3S(=O)(=O)C(C)C)n2)c(OC(C)C)cc1C1CCNCC1 [ceritinib] | 2.69
O=C(c1ccc(F)c(F)c1Nc1ccc(I)cc1F)N1CC(O)([C@@H]2CCCCN2)C1 [cobimetinib] | 2.15
C[C@H](NC(=O)CCC(F)(F)F)C(=O)N[C@@H]1C(=O)N(CCO)c2ncccc2-c2ccccc21 [crenigacestat] | 2.05
COc1cccc2c1C(=O)c1c(O)c3c(c(O)c1C2=O)C[C@@](O)(C(=O)CO)C[C@@H]3O[C@H]1C[C@H](N)[C@H](O)[C@H](C)O1 [doxorubicin] | 2.01
C[C@]12CC[C@@H]3c4ccc(O)cc4C[C@@H](CCCCCCCCC[S+]([O-])CCCC(F)(F)C(F)(F)F)[C@H]3[C@@H]1CC[C@@H]2O (some centres not stated) [fulvestrant] | 2.18
Nc1ccn([C@@H]2O[C@H](CO)[C@@H](O)C2(F)F)c(=O)n1 [gemcitabine] | 1.88
